Assays:
angiotensin-2 = test: Serum angiotensin-2 levels (radioimmunoassay); type: in vivo, Zucker Fatty Rats
Protocol: Serum angiotensin-2 was trapped by octylminicolumns (Amprep-C8, 500 mg, Amersham, Buckingshire, UK). Each minicolumn was prewashed with 5 mL of 100% methanol and then with 10 mL of 0.1% trifluoroacetic acid (TFA) in distilled water. After the serum was passed through the minicolumn, it was washed with 0.1% TFA again. […] Samples were collected and dried in a vacuum centrifuge and dissolved in 0.1M Tris-acetate buffer (pH 7.4) containing 2.6 mM disodium salt of ethylenediaminetetra-acetic acid (EDTA), 1 mM phenylmethylsulphonyl fluoride, and 0.1% bovine serum albumin.
Angiotensin-2 was measured by radioimmunoassay using an angiotensin-2 antibody (Peninsula Laboratories Inc., Belmont, Calif.). The sensitivity of the assay is 1.0 pg/tube. The 500-fold diluted angiotensin-2 antibody (100 μL) was added to the sample (400 μL) and standard tubes that were incubated 24 hours at 4° C.

Zucker Fatty Rats (ZFR) [1] = test: Insulin Challenge Testing (ICT); type: in vivo; details: Experiment 1, survivors after heat stress
Protocol: Testing was commenced after 17-19 hours of food deprivation. For ICT, 0.6 unit of regular insulin/kg BW (Eli Lilly Co., Indianapolis, Ind.) was administered, and blood for glucose determination was obtained from the tail vein at 7.5 min after injection. Glucose was estimated using commercial glucose strips (Lifescan, One Touch Ultra, […], Calif.).

Blood chemistries = type: in vivo, Zucker Fatty Rats; details: Experiment 2; for ALP (alkaline phosphatase) / ALT (alanine aminotransferase) / AST (aspartate aminotransferase) / BUN / CO2 / Calcium / Chloride / Cholesterol / Creatinine / Glucose / Potassium / Sodium / Triglycerides: blood at end of study
From the text: Blood for chemical analysis was obtained at the end of the study following removal of food four hours earlier. Blood chemistry values were obtained via dry chemistry procedures using a Johnson and Johnson (Langhorne, Pa.) Vitros® 250 instrument.

MCP-1 = test: Cytokine assay (ELISA), MCP-1; type: in vivo, Zucker Fatty Rats; details: Experiment 2
Protocol: (§1) Various cytokines were measured by ELISA methodology using kits from the following sources: rat MCP-1—Assay Designs Inc., Ann Arbor, Mich.; rat adiponectin—ALPCO Diagnostics, Salem, N.H.; TNF-a, ALPCO Diagnostics, Salem, N.H.; RAT IL-1B—Assay Designs Inc, Ann Arbor, Mich.; RAT IL-6—ALPCO Diagnostics, Salem, N.H.

Zucker Fatty Rats (ZFR) [2] = test: Blood pressure and cardiac rate by tail plethysmography; type: in vivo; details: for SBP over the last month vs control / SBP after heat stress: Experiment 1; for SBP after heat stress: survivors, 12 days after heat stress; for DBP / SBP / Cardiac rate / SBP at the end of study (75 days) vs Lo Asta group / average SBP vs control from 40 days to end of study: Experiment 2; for DBP / SBP / Cardiac rate: 60 days; for Cardiac rate: in beats/min (unit assumed)
Protocol: For two experiments, a total of 96 Zucker Fatty Rats (ZFR) (Charles River, Wilmington, Mass.) were used: 48 in each experiment were divided into four groups of 12 rats. Initial body weights ranged between 434 and 624 g in the first experiment and between 388 and 520 g in the second. All rats consumed a regular rat diet in crushed form (Purina Rat Chow, Ralston Purina, St. Louis, Mo.). Sucrose was added to the pulverized regular rat chow (30%, w/w). The four groups comprised a control eating the described diet and three test groups eating the same diet but with the addition of captopril or astaxanthin (two different doses). […] The amount of astaxanthin added was based on 2% (w/w) content of astaxanthin to powder. The first study continued for 57 days while the second continued for 75 days. SBP was measured by tail plethysmography using two different instruments. As in many previous studies, an instrument from Narco Biosciences (Houston, Tex.) was used. This allowed for rapid measurement SBP with a beeper sound system. The second reading was performed on an instrument obtained from Kent Scientific Corporation (Torrington, Conn.). The latter is a computerized, non-invasive tail cuff acquisition system that utilizes a specially-designed differential pressure transducer to non-invasively measure the blood volume in the tail. This instrument not only records SBP, but also provides measurements of mean blood pressure (MBP), diastolic blood pressure (DBP), and cardiac rate. The two instruments were used interchangeably. Previous experience has shown that the SBP readings were virtually the same by either instrument. Rats were allowed free access to their diet and water until SBP readings were obtained between 13.00 h and 17.00 h after a slight warming. Multiple readings on individual rats were taken. To be accepted, SBP measurements on a given rat had to be stable (consistently within 5 mm Hg).

IL-1B = test: Cytokine assay (ELISA), IL-1B; type: in vivo, Zucker Fatty Rats; details: Experiment 2
Protocol: as §1

Zucker Fatty Rats (ZFR) [3] = test: Survival after accidental heat stress; type: in vivo; details: Experiment 1; for survival after heat stress (survivors/group): day 42, 86-89° F. for 5-6 hours
Protocol: For two experiments, a total of 96 Zucker Fatty Rats (ZFR) (Charles River, Wilmington, Mass.) were used: 48 in each experiment were divided into four groups of 12 rats. Initial body weights ranged between 434 and 624 g in the first experiment and between 388 and 520 g in the second. All rats consumed a regular rat diet in crushed form (Purina Rat Chow, Ralston Purina, St. Louis, Mo.). Sucrose was added to the pulverized regular rat chow (30%, w/w). The four groups comprised a control eating the described diet and three test groups eating the same diet but with the addition of captopril or astaxanthin (two different doses). […] The amount of astaxanthin added was based on 2% (w/w) content of astaxanthin to powder. The first study continued for 57 days while the second continued for 75 days.
On the 42nd day, the temperature of rodent quarters rose from 72° F. to the range of 86-89° F. It was estimated that the rats were exposed to this elevated temperature for 5-6 hours. […] In contrast all ZFR in the Hi Asta group survived (11/11).
On a hot summer day, the air conditioning system in the animal quarters ceased functioning. The internal temperature of the animal quarters rose to a Fahrenheit range in the high 80's. Due to this heat stress, several ZFR that had already undergone almost six weeks of study expired. […] This can be attributed to poor stress handling of ZFR.

TNF-α = test: Cytokine assay (ELISA), TNF-α; type: in vivo, Zucker Fatty Rats; details: Experiment 2
Protocol: as §1

[4] = Hi Asta, astaxanthin 25 mg/kg in feed
[5] = Lo Asta, astaxanthin 5 mg/kg in feed

Compound: CC1=C(/C=C/C(C)=C/C=C/C(C)=C/C=C/C=C(C)/C=C/C=C(C)/C=C/C2=C(C)C(=O)[C@@H](O)CC2(C)C)C(C)(C)C[C@H](O)C1=O [Asta, astaxanthin]
- Angio 2 (angiotensin-2; Experiment 2, Hi Asta, astaxanthin 25 mg/kg in feed): 177.0 ± 5.2 pg/mL
- Angio 2 (angiotensin-2; Experiment 2, Lo Asta, astaxanthin 5 mg/kg in feed): 197.0 ± 7.2 pg/mL
- Insulin: decrease in circulating glucose after insulin challenge (ICT) (Zucker Fatty Rats (ZFR) [1]; [4]): -7.6 ± 2.5 mg/dL
- Insulin: decrease in circulating glucose after insulin challenge (ICT) (Zucker Fatty Rats (ZFR) [1]; [5]): -8.5 ± 4.1 mg/dL
- renal damage (elevations in BUN and creatinine concentrations) (Blood chemistries; [4]): none of the ZFR in the Hi Asta group showed any evidence of elevations
- renal damage (increased circulating urea, creatinine and potassium) (Blood chemistries; [5]): evidence of renal damage occurred in three ZFR
- ALP (alkaline phosphatase) (Blood chemistries; [4]): 331 ± 27.3 U/L
- ALT (alanine aminotransferase) (Blood chemistries; [4]): 86.2 ± 13.7 units
- AST (aspartate aminotransferase) (Blood chemistries; [4]): 106.1 ± 21.0 units
- BUN (Blood chemistries; [4]): 15.0 ± 0.5 mg/dL
- CO2 (Blood chemistries; [4]): 23.5 ± 0.5 mM
- Calcium (Blood chemistries; [4]): 11.4 ± 0.1 mg/dL
- Chloride (Blood chemistries; [4]): 98.9 ± 0.8 mM
- Cholesterol (Blood chemistries; [4]): 314.0 ± 13.6 mg/dL
- Creatinine (Blood chemistries; [4]): 0.5 ± 0.01 mg/dL
- Glucose (Blood chemistries; [4]): 327.0 ± 14.2 mg/dL
- Potassium (Blood chemistries; [4]): 6 ± 0.13 mM
- Sodium (Blood chemistries; [4]): 142 ± 0.8 mM
- Triglycerides (Blood chemistries; [4]): 1172.0 ± 51.2 mg/dL
- ALP (alkaline phosphatase) (Blood chemistries; [5]): 364 ± 33.4 U/L
- ALT (alanine aminotransferase) (Blood chemistries; [5]): 70.9 ± 12.4 units
- AST (aspartate aminotransferase) (Blood chemistries; [5]): 105.8 ± 20.9 units
- BUN (Blood chemistries; [5]): 25.3 ± 5.4 mg/dL
- CO2 (Blood chemistries; [5]): 22.5 ± 1 mM
- Calcium (Blood chemistries; [5]): 11.3 ± 0.2 mg/dL
- Chloride (Blood chemistries; [5]): 98.4 ± 0.7 mM
- Cholesterol (Blood chemistries; [5]): 308.0 ± 27.8 mg/dL
- Creatinine (Blood chemistries; [5]): 0.6 ± 0.90 mg/dL
- Glucose (Blood chemistries; [5]): 317.0 ± 30.6 mg/dL
- Potassium (Blood chemistries; [5]): 6.5 ± 0.04 mM
- Sodium (Blood chemistries; [5]): 141 ± 0.7 mM
- Triglycerides (Blood chemistries; [5]): 1167.0 ± 71.6 mg/dL
- MCP-1 (MCP-1; [4]): 96.0 ± 4.1
- MCP-1 (MCP-1; [5]): 110.0 ± 5.2
- SBP over the last month vs control (Zucker Fatty Rats (ZFR) [2]; [4]): significantly lower SBP
- SBP over the last month vs control (Zucker Fatty Rats (ZFR) [2]; [5]): tendency for the SBP to be lower
- SBP after heat stress (Zucker Fatty Rats (ZFR) [2]; [4]): 133.5 ± 1.5 mm Hg
- SBP after heat stress (Zucker Fatty Rats (ZFR) [2]; [5]): 140.0 ± 2.0 mm Hg
- DBP (Zucker Fatty Rats (ZFR) [2]; [4]): 102.0 ± 2.0 mm Hg
- SBP (Zucker Fatty Rats (ZFR) [2]; [4]): 132.0 ± 1.8 mm Hg
- Cardiac rate (Zucker Fatty Rats (ZFR) [2]; [4]): 401.0 ± 10.6
- DBP (Zucker Fatty Rats (ZFR) [2]; [5]): 108.0 ± 2.1 mm Hg
- SBP (Zucker Fatty Rats (ZFR) [2]; [5]): 134.0 ± 1.6 mm Hg
- Cardiac rate (Zucker Fatty Rats (ZFR) [2]; [5]): 387.0 ± 8.6
- SBP at the end of study (75 days) vs Lo Asta group (Zucker Fatty Rats (ZFR) [2]; [4]): significantly lower than in the Lo Asta group
- average SBP vs control from 40 days to end of study (Zucker Fatty Rats (ZFR) [2]; [4]): significantly lower than control
- average SBP vs control from 40 days to end of study (Zucker Fatty Rats (ZFR) [2]; [5]): significantly lower than control
- IL-1β (IL-1B; [4]): 440.0 ± 25.5
- IL-1β (IL-1B; [5]): 490.0 ± 21.7
- survival percentage after heat stress (Zucker Fatty Rats (ZFR) [3]; [4]): 100%
- survival percentage after heat stress (Zucker Fatty Rats (ZFR) [3]; [5]): 33%
- survival after heat stress (survivors/group) (Zucker Fatty Rats (ZFR) [3]; [4]): 11/11
- survival after heat stress (survivors/group) (Zucker Fatty Rats (ZFR) [3]; [5]): 4/12
- TNF-α (TNF-α; [4]): 294.0 ± 13.0
- TNF-α (TNF-α; [5]): 349.0 ± 11.9

Compound: C[C@H](CS)C(=O)N1CCC[C@H]1C(=O)O [Captopril, reference compound]
- Angio 2 (angiotensin-2; Experiment 2, captopril 30 mg/kg in feed): 162.0 ± 6.4 pg/mL
- Insulin: decrease in circulating glucose after insulin challenge (ICT) (Zucker Fatty Rats (ZFR) [1]; captopril 30 mg/kg in feed): -9.8 ± 3.5 mg/dL
- ALP (alkaline phosphatase) (Blood chemistries; captopril 30 mg/kg in feed): 333 ± 22.1 U/L
- ALT (alanine aminotransferase) (Blood chemistries; captopril 30 mg/kg in feed): 89.4 ± 13.9 units
- AST (aspartate aminotransferase) (Blood chemistries; captopril 30 mg/kg in feed): 93.0 ± 12.8 units
- BUN (Blood chemistries; captopril 30 mg/kg in feed): 14.0 ± 0.5 mg/dL
- CO2 (Blood chemistries; captopril 30 mg/kg in feed): 24.1 ± 0.9 mM
- Calcium (Blood chemistries; captopril 30 mg/kg in feed): 11.3 ± 0.6 mg/dL
- Chloride (Blood chemistries; captopril 30 mg/kg in feed): 98.6 ± 1 mM
- Cholesterol (Blood chemistries; captopril 30 mg/kg in feed): 281.0 ± 15.6 mg/dL
- Creatinine (Blood chemistries; captopril 30 mg/kg in feed): 0.4 ± 0.02 mg/dL
- Glucose (Blood chemistries; captopril 30 mg/kg in feed): 327.0 ± 23.0 mg/dL
- Potassium (Blood chemistries; captopril 30 mg/kg in feed): 6 ± 0.04 mM
- Sodium (Blood chemistries; captopril 30 mg/kg in feed): 140 ± 0.5 mM
- Triglycerides (Blood chemistries; captopril 30 mg/kg in feed): 1029.0 ± 73.6 mg/dL
- MCP-1 (MCP-1; captopril 30 mg/kg in feed): 81.0 ± 4.1
- SBP over the last month vs control (Zucker Fatty Rats (ZFR) [2]; captopril 30 mg/kg in feed): significantly lower SBP
- SBP after heat stress (Zucker Fatty Rats (ZFR) [2]; captopril 30 mg/kg in feed): 133.8 ± 2.4 mm Hg
- DBP (Zucker Fatty Rats (ZFR) [2]; captopril 30 mg/kg in feed): 103.0 ± 1.8 mm Hg
- SBP (Zucker Fatty Rats (ZFR) [2]; captopril 30 mg/kg in feed): 129.0 ± 1.5 mm Hg
- Cardiac rate (Zucker Fatty Rats (ZFR) [2]; captopril 30 mg/kg in feed): 393.0 ± 9.3
- SBP at the end of study (75 days) vs Lo Asta group (Zucker Fatty Rats (ZFR) [2]; captopril 30 mg/kg in feed): significantly lower than in the Lo Asta group
- average SBP vs control from 40 days to end of study (Zucker Fatty Rats (ZFR) [2]; captopril 30 mg/kg in feed): significantly lower than control
- IL-1β (IL-1B; captopril 30 mg/kg in feed): 416.0 ± 14.8
- survival percentage after heat stress (Zucker Fatty Rats (ZFR) [3]; captopril 30 mg/kg in feed): 36%
- survival after heat stress (survivors/group) (Zucker Fatty Rats (ZFR) [3]; captopril 30 mg/kg in feed): 4/11
- TNF-α (TNF-α; captopril 30 mg/kg in feed): 242.0 ± 13.6

Source: patent US8877819B2, “Methods for treating heat stress and related compositions” (Georgetown University, priority 2008, dated 2014)
